Our source for the melting point values is US8399462B2, “JNK modulators” (Roche Palo Alto LLC, priority 2006, dated 2013).

Several values for one entry are separate records, joined by “and”; a condition that tells them apart may be missing. Equal entries are not always repeated.

A word on the melting point: it is the temperature, or range, at which the solid turns liquid. Regarding `CSC[C@H]1CC[C@H](Nc2nccc(-n3ccc4c(OCCCS(C)(=O)=O)cccc43)n2)CC1` [Compound 298, {4-[4-(3-methane-sulfonyl-propoxy)-indol-1-yl]-pyrimidin-2-yl}-(4-methylsulfanylmethyl-cyclohexyl)-amine], the melting point was 158.7 to 159.6 °C.
With `NS(=O)(=O)CCCOc1cccc2c1ccn2-c1ccnc(N[C@H]2CC[C@H](C(=O)N3CCC3)CC2)n1` [Compound 299, 3-(1-{2-[4-(azetidin-1-carbonyl)-cyclohexyl-amino]-pyrimidin-4-yl}-1H-indol-4-yloxy)-propane-1-sulfonic acid amide], the melting point lay in the range of 218.4 to 220.9 °C.
The same measure for `CN(C)C1CCN(C(=O)[C@H]2CC[C@H](Nc3nccc(-n4ccc5c(OCCCS(N)(=O)=O)cccc54)n3)CC2)CC1` [Compound 300, 3-(1-{2-[4-(4-dimethyl-amino-piperidine-1-carbonyl)-cyclohexyl-amino]-pyrimidin-4-yl}-1H-indol-4-yloxy)-propane-1-sulfonic acid amide]: 135.7 to 142.7 °C; for `CS(=O)(=O)CCCOc1cccc2c1ccn2-c1ccnc(N[C@H]2CC[C@H](C(=O)N3CCC(NC4CC4)CC3)CC2)n1` [Compound 302, (4-cyclopropylamino-piperidin-1-yl)-(4-{4-[4-(3-methanesulfonyl-propoxy)-indol-1-yl]-pyrimidin-2-ylamino}-cyclohexyl)-methanone]: 196.3 to 197.9 °C; for `CCNC(=O)[C@H]1CC[C@H](Nc2nccc(-n3ccc4c(OCCCS(=O)(=O)NC)cccc43)n2)CC1` [Compound 303, 4-{4-[4-(3-methane-sulfamoyl-propoxy)-indol-1-yl]-pyrimidin-2-ylamino}-cyclohexane-carboxylic acid ethyl-amide]: 201.7 to 203.2 °C.
The same measure for `CS(=O)(=O)CCCOc1cccc2c1ccn2-c1ccnc(N[C@H]2CC[C@H](C(=O)N3CCC(CN)CC3)CC2)n1` [Compound 304, (4-aminomethyl-piperidin-1-yl)-(4-{4-[4-(3-methanesulfonyl-propoxy)-indol-1-yl]-pyrimidin-2-ylamino}-cyclohexyl)-methanone]: 124.1 to 126.1 °C and 124 to 126 °C; for `CS(=O)(=O)CCCOc1cccc2c1ccn2-c1ccnc(N[C@H]2CC[C@H](N3CCCS3(=O)=O)CC2)n1` [Compound 305, [4-(1,1-dioxo-isothiazolidin-2-yl)-cyclohexyl]-{4-[4-(3-methane-sulfonyl-propoxy)-indol-1-yl]-pyrimidin-2-yl}-amine]: 164.1 to 172.5 °C.
For `CS(=O)(=O)CCCOc1cccc2c(-c3ccnc(N[C@H]4CC[C@H](NS(C)(=O)=O)CC4)n3)noc12` [Compound 306, N-(4-{4-[7-(3-methane-sulfonyl-propoxy)-benzo[d]isoxazol-3-yl]-pyrimidin-2-ylamino}-cyclohexyl)-methane-sulfonamide] the value was 225 to 226 °C; for `CS(=O)(=O)CCCOc1cccc2c(-c3ccnc(N[C@H]4CC[C@H](C(=O)N5CCC(O)CC5)CC4)n3)noc12` [Compound 307, (4-hydroxy-piperidin-1-yl)-(4-{4-[7-(3-methane-sulfonyl-propoxy)-benzo[d]isoxazol-3-yl]-pyrimidin-2-ylamino}-cyclohexyl)-methanone], 186 to 187 °C; for `CS(=O)(=O)CCCOc1cccc2c(-c3ccnc(N[C@H]4CC[C@H](C(=O)N5CC[C@@H](O)C5)CC4)n3)noc12` [Compound 309, (3-hydroxy-pyrrolidin-1-yl)-(4-{4-[7-(3-methane-sulfonyl-propoxy)-benzo[d]isoxazol-3-yl]-pyrimidin-2-ylamino}-cyclohexyl)-methanone], 224 to 225 °C.
`CN([C@H]1CC[C@H](Nc2nccc(-c3noc4c(OCCCS(C)(=O)=O)cccc34)n2)CC1)S(C)(=O)=O` [Compound 310, N-(4-{4-[7-(3-methane-sulfonyl-propoxy)-benzo[d]isoxazol-3-yl]-pyrimidin-2-ylamino}-cyclohexyl)-N-methyl-methanesulfonamide] returned a melting point of 213.5 to 214.2 °C.
The same measure for `CS(=O)(=O)N[C@H]1CC[C@H](Nc2nccc(-n3ccc4c(N5CCC(O)C5)cccc43)n2)CC1` (some centres unmarked) [Compound 312, N-(4-{4-[4-(3-hydroxy-pyrrolidin-1-yl)-indol-1-yl]-pyrimidin-2-yl-amino}-cyclohexyl)-methanesulfonamide]: 190.1 to 200.5 °C.
For `CS(=O)(=O)N[C@H]1CC[C@H](Nc2nccc(-n3ccc4c(OCC(O)CC(F)(F)F)cccc43)n2)CC1` (some centres unmarked) [Compound 314, N-(4-{4-[4-(4,4,4-trifluoro-2-hydroxy-butoxy)-indol-1-yl]-pyrimidin-2-ylamino}-cyclohexyl)-methanesulfonamide] the value was 220.7 to 221.5 °C; for `CS(=O)(=O)CCCOc1cccc2c1ccn2-c1ccnc(N[C@H]2CC[C@H](CN3CC[C@@H](O)C3)CC2)n1` [Compound 317, 1-(4-{4-[4-(3-methanesulfonyl-propoxy)-indol-1-yl]-pyirmidin-2-ylamino}-cyclohexylmethyl)-pyrrolidin-3-ol], 139.6 to 150.3 °C.
For `CCOC(=O)[C@H]1CC[C@H](Nc2nccc(-n3ccc4c(OCCCS(N)(=O)=O)cccc43)n2)CC1` [Compound 318, 4-{4-[4-(3-sulfamoyl-propoxy)-indol-1-yl]-pyrimidin-2-ylamino}-cyclohexanecarboxylic acid ethyl ester] the value was 145 to 148 °C.
In turn, `CC(=O)N1CCN(c2cccc3c2ccn3-c2ccnc(N[C@H]3CC[C@H](N(CCO)S(C)(=O)=O)CC3)n2)CC1` [Compound 320, N-(4-{4-[4-(4-acetyl-piperazin-1-yl)-indol-1-yl]-pyrimidin-2-ylamino}-cyclohexyl)-N-(2-hydroxy-ethyl)-methanesulfonamide] registered a melting point of 244.5 to 248.8 °C.
For `CN(C1CCC(Nc2nccc(-n3cc(S(N)(=O)=O)c4ccccc43)n2)CC1)S(C)(=O)=O` (centres unmarked) [Compound 321, 1-{2-[4-(methanesulfonyl-methyl-amino)-cyclohexylamino]-pyrimdin-4-yl}-1H-indole-3-sulfonic acid amide] the value was 246.6 to 248.2 °C.
Compound `O[C@H]1CC[C@H](Nc2nccc(-c3n[nH]c4c(C(F)(F)F)cccc34)n2)CC1` [Example 3, trans-4-[4-(7-Trifluoromethyl-1H-indazol-3-yl)-pyrimidin-2-yl-amino]-cyclohexanol] registered a melting point of 265.5 to 270 °C.
The compound `C[C@H]1CC[C@H](Nc2nccc(-n3ncc4c([N+](=O)[O-])cccc43)n2)CC1` [Example 4, trans-(4-Methyl-cyclohexyl)-[4-(4-nitro-indazol-1-yl)-pyrimidin-2-yl]-amine] came in with a melting point of 253.9 to 254.8 °C.
`CC(O)CCNC(=O)[C@H]1CC[C@H](Nc2nccc(-n3ncc4ccccc43)n2)CC1` (stereo partly drawn) [Example 5, trans-4-(4-Indazol-1-ylpyrimidin-2-ylamino)-cyclohexane-carboxylic acid (3-hydroxy-butyl)-amide] registered a melting point of 248.5 to 252.5 °C.
For `O=C([C@H]1CC[C@H](Nc2nccc(-n3ncc4ccccc43)n2)CC1)N1CCOCC1` [Example 6, trans-[4-(4-Indazol-1-yl-pyrimidin-2-ylamino)-cyclohexyl]-morpholin-4-yl-methanone] the value was 191 to 192 °C.
Consider `O=C(O)c1cccc2c1ccn2-c1ccnc(N[C@H]2CC[C@H](O)CC2)n1` [Example 7, trans-1-[2-(4-Hydroxy-cyclohexylamino)-pyrimidin-4-yl]-1H-indole-4-carboxylic acid], for which the melting point fell in the range of 259 to 261 °C.
As for `Nc1cccc2c1ccn2-c1ccnc(N[C@H]2CC[C@H](O)CC2)n1` [Example 8, trans-4-[4-(4-Aminoindol-1-yl)-pyrimidin-2-ylamino]-cyclohexanol], the melting point lay within 218.9 to 220.1 °C.
For `Oc1ccc2c(ccn2-c2ccnc(N[C@H]3CC[C@H](O)CC3)n2)c1` [Example 9, trans-1-[2-(4-Hydroxycyclohexylamino)-pyrimidin-4-yl]-1H-indol-5-ol] the value was 246.5 to 248 °C; for `OCc1cccc2c1ccn2-c1ccnc(N[C@H]2CC[C@H](O)CC2)n1` [Example 10, trans-4-[4-(4-Hydroxymethylindol-1-yl)-pyrimidin-2-ylamino]-cyclohexanol], 212 to 213.3 °C; for `CS(=O)(=O)N[C@H]1CC[C@H](Nc2nccc(-n3ncc4ccccc43)n2)CC1` [Example 12, trans-N-[4-(4-Indazol-1-ylpyrimidin-2-ylamino)-cyclohexyl]-methanesulfonamide], 269.6 to 270.4 °C.
The same measure for `CC1(O)CCC(Nc2nccc(-n3ncc4ccccc43)n2)CC1` (centres unmarked) [Example 13, 4-(4-Indazol-1-ylpyrimidin-2-ylamino)-1-methylcyclohexanol]: 168.1 to 170.1 °C.
For the compound `O=S(=O)(Cc1ccccc1)c1cccc2c1ccn2-c1ccnc(N[C@H]2CC[C@H](O)CC2)n1` [Example 14, trans-4-[4-(4-Phenylmethanesulfonylindol-1-yl)-pyrimidin-2-yl-amino]-cyclohexanol], the melting point fell in the range of 132.1 to 134.5 °C.
The same measure for `O=c1[nH]n(-c2ccnc(N[C@H]3CC[C@H](O)CC3)n2)c2ccccc12` [Example 16, trans-1-[2-(4-hydroxycyclohexylamino)-pyrimidin-4-yl]-1,2-dihydroindazol-3-one]: 263.5 to 264.4 °C; for `Cn1cc(-c2ccnc(N[C@H]3CC[C@H](O)CC3)n2)c2ccccc21` [Example 17, trans-4-[4-(1-Methyl-1H-indol-3-yl)-pyrimidin-2-ylamino]-cyclohexanol]: 194.5 to 195.3 °C; for `CC(=O)Nc1ccc2cnn(-c3ccnc(N[C@H]4CC[C@H](O)CC4)n3)c2c1` [Example 19, trans-N-{1-[2-(4-Hydroxycyclohexylamino)-pyrimidin-4-yl]-1H-indazol-6-yl}-acetamide]: 288 to 289.5 °C.
The same measure for `OCc1ccc2cnn(-c3ccnc(N[C@H]4CC[C@H](O)CC4)n3)c2c1` [Example 20, trans-4-[4-(6-Hydroxymethylindazol-1-yl)-pyrimidin-2-ylamino]-cyclohexanol]: 216 to 217.7 °C.
